In article PMC4139061, “Structural basis of nucleoside and nucleoside drug selectivity by concentrative nucleoside transporters” (eLife, 2014):
“And” between values parts separate entries of the source, which are not always exact repeats. Identical values can stand only once.

Assays:
[1] = molecular target: T1, vcCNT (Vibrio cholerae, UniProt Q9KPL5); experiment: biochemical; assay type: binding
Description: The fluorescence anisotropy after each addition was measured. Each titration was performed at least three times. The data for the three titrations were simultaneously fit to a one-site competitive binding model based off of Wang's method ([Wang, 1995]) using nonlinear least-squares analysis in GraphPad Prism to obtain a dissociation constant and standard error.

[2] = test system: hCNTs; conditions: cited from earlier work
[3] = molecular target: hCNT3 (375L/446V) (Homo sapiens, UniProt Q9HAS3, L446V/V375L); experiment: two-electrode voltage-clamp total charge in Xenopus oocytes expressing hCNT3 (375L/446V); assay type: cell-based; conditions: 400 μM nucleoside; hCNT3 (375L/446V)-expressing Xenopus oocytes; mean of Exp. 1-11
Sequence of hCNT3 (375L/446V) (Q9HAS3 whole entry V375L/L446V): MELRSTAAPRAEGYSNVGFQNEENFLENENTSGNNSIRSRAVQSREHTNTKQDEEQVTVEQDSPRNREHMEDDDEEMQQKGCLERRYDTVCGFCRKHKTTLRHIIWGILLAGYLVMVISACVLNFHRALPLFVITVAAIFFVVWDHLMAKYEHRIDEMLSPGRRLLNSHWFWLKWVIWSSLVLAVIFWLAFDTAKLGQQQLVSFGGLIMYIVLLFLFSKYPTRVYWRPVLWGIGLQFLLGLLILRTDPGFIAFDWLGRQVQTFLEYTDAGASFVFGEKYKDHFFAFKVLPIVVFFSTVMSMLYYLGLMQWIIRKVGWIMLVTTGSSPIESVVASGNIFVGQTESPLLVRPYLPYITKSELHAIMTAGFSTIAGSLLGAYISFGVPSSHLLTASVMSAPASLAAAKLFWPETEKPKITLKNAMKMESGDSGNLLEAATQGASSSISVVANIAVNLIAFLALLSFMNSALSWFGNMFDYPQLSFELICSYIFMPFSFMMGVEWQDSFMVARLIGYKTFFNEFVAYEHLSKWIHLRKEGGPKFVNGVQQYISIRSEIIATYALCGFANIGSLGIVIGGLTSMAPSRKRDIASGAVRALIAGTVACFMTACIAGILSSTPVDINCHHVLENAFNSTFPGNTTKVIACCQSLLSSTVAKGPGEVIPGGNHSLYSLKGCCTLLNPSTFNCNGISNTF
Excerpt: In the paradigm of the alternating-access mechanism of sodium-coupled symporters ([Krishnamurthy et al., 2009]), substrate release is achieved by the transition from the inward-facing occluded to the inward-facing open state (Figure 6C).
(§1) Figure 6. […] (A) Model of hCNT3 nucleo-pocket. […] (B) Model of hCNT1 nucleo-pocket. […] (C) Hypothetical alternating-access mechanism of vcCNT. A cartoon representation of the different conformational states along the transport cycle is depicted. The transport domain (including HP1, HP2, TM4b, and TM7b) and TM6 are shown as cylinders. […] The nucleo-pocket in the inward-occluded conformation (bottom right) is located between TM6 and TM4 and is marked with a green star. The inward-occluded conformation is derived from the crystal structures of vcCNT. All other conformations are purely hypothetical. The transition between inward- and outward-facing conformations has been proposed to be achieved by a rigid-body movement of the transport domain across TM6 ([Johnson et al., 2012]). Extracellular and intracellular gating likely involves slight rearrangements of HP2/TM4b and HP1/TM7b, respectively. […] See Figure 6—source data 1 for total charge source data. DOI: http://dx.doi.org/10.7554/eLife.03604.024 Figure 6—source data 1. Total charge data. Total charge transported (μC) was calculated as the area under the curve of the current trace after application of the indicated nucleoside to hCNT-expressing Xenopus oocytes. Each row represents a separate experiment done using a different oocyte. The ratios of the total charge transported for the nucleosides are shown in the last columns.
The genes coding for the three hCNTs and vcCNT were cloned into a pGEM-HE vector. Plasmids were linearized using either SphI or NheI, and mRNA was transcribed using the mMESSAGE mMACHINE T7 Transcription Kit (Ambion, Grand Island, NY). […]
The oocyte-recording chamber was gravity-perfused with ND96 buffer at a rate of 2 ml/min. Membrane currents were measured using an Oocyte Clamp (OC-725C; Warner Instruments, Hamden, CT). […]

[4] = molecular target: T2, hCNT1 (Homo sapiens, UniProt O00337); experiment: two-electrode voltage-clamp of Na+ currents / total charge in Xenopus oocytes expressing hCNT1; assay type: cell-based; conditions: 200 μM nucleoside; hCNT1-expressing Xenopus oocytes; mean of Exp. 1-11
T2 sequence (O00337 1-649): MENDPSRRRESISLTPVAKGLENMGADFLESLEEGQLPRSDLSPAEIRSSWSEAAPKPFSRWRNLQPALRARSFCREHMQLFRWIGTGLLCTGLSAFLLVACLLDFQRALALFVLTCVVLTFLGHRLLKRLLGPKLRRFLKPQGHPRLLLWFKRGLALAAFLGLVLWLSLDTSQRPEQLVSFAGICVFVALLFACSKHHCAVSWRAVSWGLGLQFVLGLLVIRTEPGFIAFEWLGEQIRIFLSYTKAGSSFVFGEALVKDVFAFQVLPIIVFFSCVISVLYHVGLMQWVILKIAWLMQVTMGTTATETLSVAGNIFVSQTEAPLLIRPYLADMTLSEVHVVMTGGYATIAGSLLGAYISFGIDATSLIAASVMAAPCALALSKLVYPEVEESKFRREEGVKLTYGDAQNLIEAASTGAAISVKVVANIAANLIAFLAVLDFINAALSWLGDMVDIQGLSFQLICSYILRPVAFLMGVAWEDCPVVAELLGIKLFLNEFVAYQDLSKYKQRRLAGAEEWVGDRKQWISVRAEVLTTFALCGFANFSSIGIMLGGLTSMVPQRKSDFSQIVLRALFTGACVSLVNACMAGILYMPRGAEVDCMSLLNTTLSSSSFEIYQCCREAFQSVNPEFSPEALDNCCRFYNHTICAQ
Excerpt: (§2) To detect nucleoside transport by hCNTs, we turned to two-electrode voltage-clamp electrophysiological recording. Because hCNTs are Na^+-nucleoside symporters, one can measure the current generated by the Na^+ transport that is coupled with nucleoside transport. We injected Xenopus oocytes with mRNA coding for each of the hCNTs and measured inward Na^+ currents elicited by the addition of different nucleosides to the extracellular side.
(§3) The genes coding for the three hCNTs and vcCNT were cloned into a pGEM-HE vector. Plasmids were linearized using either SphI or NheI, and mRNA was transcribed using the mMESSAGE mMACHINE T7 Transcription Kit (Ambion, Grand Island, NY). Defolliculated Xenopus laevis oocytes were purchased from Ecocyte Bioscience (Austin, TX). Individual oocytes were injected with 40 ng of mRNA using a 10-μl microdispenser (Drummond Scientific, Broomall, PA) fitted with a tapered glass pipette tip and incubated at 17 °C for 4–5 days in ND96 buffer (96 mM NaCl, 2 mM KCl, 1 mM MgCl2, 1.8 mM CaCl2, and 5 mM HEPES pH 7.5) with 0.1% penicillin and streptomycin before recording.
(§4) The oocyte-recording chamber was gravity-perfused with ND96 buffer at a rate of 2 ml/min. Membrane currents were measured using an Oocyte Clamp (OC-725C; Warner Instruments, Hamden, CT). Individual oocytes were penetrated with two microelectrodes filled with 3 M KCl (0.5–1.0 MΩ). All electrophysiological experiments were conducted at room temperature. The OC-725C Oocyte Clamp was computer-interfaced via an Axon Digidata 1550 and controlled by Axoscope software (Molecular Devices, Sunnyvale, CA). The current signals were filtered at 20 Hz and sampled at intervals of 20 ms. The signals were filtered at 0.5 Hz by use of pCLAMP 10.4 software for data presentation. […] Cells were discarded if resting membrane potentials were unstable or more positive than −30 mV. Oocyte membrane potentials were clamped at −90 mV for holding potentials to measure transporter-generated currents. All data are shown as means ± SEM.

[5] = molecular target: hCNT2 (Homo sapiens, UniProt O43868); experiment: two-electrode voltage-clamp of Na+ currents in Xenopus oocytes expressing hCNT2; assay type: cell-based; conditions: data not shown
Sequence of hCNT2 (O43868 whole entry): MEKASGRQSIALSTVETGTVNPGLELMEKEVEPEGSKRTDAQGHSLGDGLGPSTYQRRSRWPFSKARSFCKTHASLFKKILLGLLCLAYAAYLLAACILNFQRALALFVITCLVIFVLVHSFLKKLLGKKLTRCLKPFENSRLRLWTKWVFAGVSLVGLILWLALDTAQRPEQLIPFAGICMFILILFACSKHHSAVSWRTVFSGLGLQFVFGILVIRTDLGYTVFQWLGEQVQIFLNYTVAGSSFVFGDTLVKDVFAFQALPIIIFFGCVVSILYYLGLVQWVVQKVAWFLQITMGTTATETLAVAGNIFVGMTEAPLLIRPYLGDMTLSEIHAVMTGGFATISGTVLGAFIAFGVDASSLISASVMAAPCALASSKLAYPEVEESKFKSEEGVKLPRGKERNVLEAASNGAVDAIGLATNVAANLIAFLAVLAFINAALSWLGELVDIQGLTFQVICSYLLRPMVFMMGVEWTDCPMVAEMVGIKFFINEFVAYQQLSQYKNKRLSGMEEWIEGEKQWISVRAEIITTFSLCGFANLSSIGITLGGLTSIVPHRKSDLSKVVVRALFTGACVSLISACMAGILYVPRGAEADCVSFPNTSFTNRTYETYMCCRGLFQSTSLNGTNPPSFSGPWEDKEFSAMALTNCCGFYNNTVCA
Excerpt: as §2, §3
The oocyte-recording chamber was gravity-perfused with ND96 buffer at a rate of 2 ml/min. Membrane currents were measured using an Oocyte Clamp (OC-725C; Warner Instruments, Hamden, CT). Individual oocytes were penetrated with two microelectrodes filled with 3 M KCl (0.5–1.0 MΩ). […]

[6] = molecular target: hCNT1 (353V/424L) (Homo sapiens, UniProt O00337, L353V/V424L); experiment: two-electrode voltage-clamp total charge in Xenopus oocytes expressing hCNT1 (353V/424L); assay type: cell-based; conditions: 400 μM nucleoside, hCNT1 (353V/424L)-expressing Xenopus oocytes
Sequence of hCNT1 (353V/424L) (O00337 whole entry L353V/V424L): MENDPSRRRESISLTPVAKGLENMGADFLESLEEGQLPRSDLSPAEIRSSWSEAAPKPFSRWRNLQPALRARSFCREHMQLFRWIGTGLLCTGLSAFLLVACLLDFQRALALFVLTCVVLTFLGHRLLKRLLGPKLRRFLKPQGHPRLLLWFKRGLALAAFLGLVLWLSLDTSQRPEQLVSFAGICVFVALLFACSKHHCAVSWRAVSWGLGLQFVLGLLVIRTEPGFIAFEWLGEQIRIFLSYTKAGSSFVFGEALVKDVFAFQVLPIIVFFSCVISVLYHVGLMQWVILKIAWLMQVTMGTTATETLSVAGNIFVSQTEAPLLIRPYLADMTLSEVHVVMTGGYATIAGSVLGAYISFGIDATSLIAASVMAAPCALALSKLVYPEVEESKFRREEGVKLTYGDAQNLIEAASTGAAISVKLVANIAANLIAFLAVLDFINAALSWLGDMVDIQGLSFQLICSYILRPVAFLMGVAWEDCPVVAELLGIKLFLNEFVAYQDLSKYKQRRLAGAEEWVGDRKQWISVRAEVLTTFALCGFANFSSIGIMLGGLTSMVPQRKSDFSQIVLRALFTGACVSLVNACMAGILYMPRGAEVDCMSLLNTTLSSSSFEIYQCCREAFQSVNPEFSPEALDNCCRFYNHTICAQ
Excerpt: as §1, §3
The oocyte-recording chamber was gravity-perfused with ND96 buffer at a rate of 2 ml/min. Membrane currents were measured using an Oocyte Clamp (OC-725C; Warner Instruments, Hamden, CT). Individual oocytes were penetrated with two microelectrodes filled with 3 M KCl (0.5–1.0 MΩ). All electrophysiological experiments were conducted at room temperature. The OC-725C Oocyte Clamp was computer-interfaced via an Axon Digidata 1550 and controlled by Axoscope software (Molecular Devices, Sunnyvale, CA). The current signals were filtered at 20 Hz and sampled at intervals of 20 ms.

[7] = molecular target: T3, hCNT3 (Homo sapiens, UniProt Q9HAS3); experiment: two-electrode voltage-clamp of Na+ currents / total charge in Xenopus oocytes expressing hCNT3; assay type: cell-based
T3 sequence (Q9HAS3 1-691): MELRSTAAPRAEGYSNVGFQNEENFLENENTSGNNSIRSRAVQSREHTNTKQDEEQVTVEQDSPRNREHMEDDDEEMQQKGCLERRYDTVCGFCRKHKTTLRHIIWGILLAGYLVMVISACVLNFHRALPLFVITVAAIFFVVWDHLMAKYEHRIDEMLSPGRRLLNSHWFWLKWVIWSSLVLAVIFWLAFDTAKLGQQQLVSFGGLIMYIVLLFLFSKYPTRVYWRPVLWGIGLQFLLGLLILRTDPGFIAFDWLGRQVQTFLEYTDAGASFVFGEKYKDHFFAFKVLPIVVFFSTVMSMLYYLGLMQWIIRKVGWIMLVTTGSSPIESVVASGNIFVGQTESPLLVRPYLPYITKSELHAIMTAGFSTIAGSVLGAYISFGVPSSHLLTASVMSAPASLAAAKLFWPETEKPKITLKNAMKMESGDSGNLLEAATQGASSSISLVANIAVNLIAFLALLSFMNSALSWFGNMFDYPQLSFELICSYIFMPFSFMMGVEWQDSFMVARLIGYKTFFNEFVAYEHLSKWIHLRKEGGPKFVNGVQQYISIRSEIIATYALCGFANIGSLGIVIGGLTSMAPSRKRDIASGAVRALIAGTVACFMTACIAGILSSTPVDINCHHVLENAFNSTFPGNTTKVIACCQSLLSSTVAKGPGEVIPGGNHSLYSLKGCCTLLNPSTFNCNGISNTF
Excerpt: as §2, §3, §4

[8] = molecular target: T1, vcCNT; experiment: biochemical; assay type: binding; conditions: KD

T1 sequence (Q9KPL5 entry or part of it): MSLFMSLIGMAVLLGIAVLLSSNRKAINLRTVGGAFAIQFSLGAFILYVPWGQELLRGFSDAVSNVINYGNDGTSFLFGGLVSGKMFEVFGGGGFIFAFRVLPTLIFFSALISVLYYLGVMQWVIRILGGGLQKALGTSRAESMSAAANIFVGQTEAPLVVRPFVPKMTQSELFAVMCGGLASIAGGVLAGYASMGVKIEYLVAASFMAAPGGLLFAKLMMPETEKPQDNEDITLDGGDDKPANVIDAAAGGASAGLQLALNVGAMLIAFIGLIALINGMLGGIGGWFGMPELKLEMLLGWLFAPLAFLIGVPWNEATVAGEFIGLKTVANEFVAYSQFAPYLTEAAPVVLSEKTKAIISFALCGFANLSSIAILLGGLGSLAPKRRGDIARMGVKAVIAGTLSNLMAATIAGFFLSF

Structure (SMILES): O=c1ccn([C@H]2C[C@H](O)[C@@H](CO)O2)c(=O)[nH]1 [2′-deoxyuridine]
- Kd [1]: 170 ± 10 µM

Structure (SMILES): Cn1c(=O)ccn([C@@H]2O[C@H](CO)[C@@H](O)[C@H]2O)c1=O [3-methyluridine]
- Kd [1]: 520 ± 80 µM

Structure (SMILES): O=c1ccn([C@@H]2O[C@H](CO)C[C@H]2O)c(=O)[nH]1 [3′-deoxyuridine]
- Kd [1]: > 2800 µM

Structure (SMILES): C[C@H]1O[C@@H](n2ccc(=O)[nH]c2=O)[C@H](O)[C@@H]1O [5'-deoxyuridine]
- Kd [1]: > 2800 µM

Structure (SMILES): O=c1[nH]c(=O)n([C@@H]2O[C@H](CO)[C@@H](O)[C@H]2O)cc1Cl [5-chlorouridine]
- Kd [1]: 14 ± 1 µM

Structure (SMILES): O=c1[nH]c(=O)n([C@@H]2O[C@H](CO)[C@@H](O)[C@H]2O)cc1F [5-fluorouridine]
- Kd [1]: 16 ± 1 µM
- KD lower than the KD for uridine ([1]; fold, vcCNT): twofold

Structure (SMILES): O=c1[nH]c(=O)n([C@@H]2O[C@H](CO)[C@@H](O)[C@H]2O)cc1I [5-iodouridine]
- Kd [1]: 58 ± 5 µM

Structure (SMILES): Cc1cn([C@@H]2O[C@H](CO)[C@@H](O)[C@H]2O)c(=O)[nH]c1=O [5-methyluridine]
- Kd [1]: 61 ± 7 µM

Structure (SMILES): Nc1ncnc2c1ncn2[C@@H]1O[C@H](CO)[C@@H](O)[C@H]1O [adenosine]
- Kd [1]: 470 ± 100 µM

Structure (SMILES): Nc1ccn([C@@H]2O[C@H](CO)[C@@H](O)[C@@H]2O)c(=O)n1 [cytarabine]
- binding and transport by hCNTs ([2]; ref Clarke et al., 2006): no significant binding and transport

Structure (SMILES): Nc1ccn([C@@H]2O[C@H](CO)[C@@H](O)C2(F)F)c(=O)n1 [gemcitabine]
- Total charge transported, Mean [3]: 5.697 μC
- Total charge transported, Mean [4]: 0.127 μC
- transport by hCNT2 [5]: transported neither compound
- Total charge transported, Mean ([6]; mean of Exp. 1-8): 0.692 μC
- Total charge transported ([6]; single oocyte, listed as Gem): 0.743 μC and 0.542 μC and 0.572 μC and 0.858 μC and 0.563 μC and 0.586 μC and 0.813 μC
- Total charge transported, Mean ([7]; 200 μM nucleoside, hCNT3-expressing Xenopus oocytes, mean of Exp. 1-14): 7.084 μC
- Na+ current on addition of nucleoside ([7]; hCNT3-expressing oocytes, 200 μM): induced Na^+ currents
- KD higher than that for cytidine [1]: ~22 fold

Structure (SMILES): Cc1cc2cn([C@@H]3O[C@H](CO)[C@@H](O)[C@H]3O)c(=O)nc2[nH]1 [pyrrolo-cytidine, reference compound]
- Kd [8]: 0.9 µM and 0.94 µM

Structure (SMILES): NC(=O)c1ncn([C@@H]2O[C@H](CO)[C@@H](O)[C@H]2O)n1 [ribavirin]
- Kd [1]: 1530 µM

Structure (SMILES): O=c1ccn([C@@H]2O[C@H](CO)[C@@H](O)[C@H]2O)c(=O)[nH]1 [uridine]
- Km ([2]; reported Km values, ref Molina-Arcas et al., 2009): 22 to 80 µM

Structure (SMILES): O=c1ncccn1[C@@H]1O[C@H](CO)[C@@H](O)[C@H]1O [zebularine]
- Kd [1]: 120 ± 5 µM
- loss of binding affinity relative to uridine ([1]; fold, vcCNT): threefold
